# What was measured:
# [1] = target: T1, eukaryotic translation elongation factor 1 alpha 1 (eEF1A1) (Homo sapiens, UniProt P68104); test: SPR; format: binding
# T1 sequence (P68104 2-462): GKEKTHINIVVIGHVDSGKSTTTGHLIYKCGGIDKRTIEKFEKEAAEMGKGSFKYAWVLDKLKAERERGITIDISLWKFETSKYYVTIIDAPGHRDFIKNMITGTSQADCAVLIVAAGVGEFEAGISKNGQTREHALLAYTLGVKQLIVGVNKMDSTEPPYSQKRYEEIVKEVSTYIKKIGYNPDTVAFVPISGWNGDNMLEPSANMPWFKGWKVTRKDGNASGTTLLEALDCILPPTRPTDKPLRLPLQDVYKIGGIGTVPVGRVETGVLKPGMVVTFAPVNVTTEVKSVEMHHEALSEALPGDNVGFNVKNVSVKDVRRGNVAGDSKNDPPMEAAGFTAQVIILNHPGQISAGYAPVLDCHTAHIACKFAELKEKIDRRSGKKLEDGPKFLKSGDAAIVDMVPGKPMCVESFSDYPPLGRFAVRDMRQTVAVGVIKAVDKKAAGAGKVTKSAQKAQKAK
# [2] = target: T2, vacuolar protein sorting 4 homolog B (VPS4B) (Homo sapiens, UniProt O75351); test: SPR; format: binding
# T2 sequence (O75351 1-444): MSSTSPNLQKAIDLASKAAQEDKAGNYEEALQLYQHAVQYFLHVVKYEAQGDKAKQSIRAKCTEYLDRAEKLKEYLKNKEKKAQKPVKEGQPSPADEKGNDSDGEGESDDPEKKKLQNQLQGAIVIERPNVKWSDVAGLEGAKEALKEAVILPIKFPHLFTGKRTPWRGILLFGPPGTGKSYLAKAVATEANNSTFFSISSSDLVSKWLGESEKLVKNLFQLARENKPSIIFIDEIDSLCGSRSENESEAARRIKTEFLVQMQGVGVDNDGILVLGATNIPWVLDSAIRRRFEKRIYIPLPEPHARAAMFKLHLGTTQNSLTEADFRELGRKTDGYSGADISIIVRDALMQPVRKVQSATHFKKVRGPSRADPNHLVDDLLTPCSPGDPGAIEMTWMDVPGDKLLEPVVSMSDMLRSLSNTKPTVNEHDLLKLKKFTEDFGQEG
# peroxiredoxin 3 (PRDX3) = target: T3, peroxiredoxin 3 (PRDX3) (Homo sapiens, UniProt P30048); test: SPR; format: binding
# T3 sequence (P30048 62-256): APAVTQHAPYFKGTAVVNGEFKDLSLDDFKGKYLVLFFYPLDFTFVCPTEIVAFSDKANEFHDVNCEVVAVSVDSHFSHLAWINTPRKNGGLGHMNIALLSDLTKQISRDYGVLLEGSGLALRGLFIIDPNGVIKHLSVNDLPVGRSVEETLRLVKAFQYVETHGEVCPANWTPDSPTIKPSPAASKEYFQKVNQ
# EIF2AK2 = EIF2AK2 (Homo sapiens, UniProt P19525); test: biochemical
# Chain of EIF2AK2 (P19525 2-551): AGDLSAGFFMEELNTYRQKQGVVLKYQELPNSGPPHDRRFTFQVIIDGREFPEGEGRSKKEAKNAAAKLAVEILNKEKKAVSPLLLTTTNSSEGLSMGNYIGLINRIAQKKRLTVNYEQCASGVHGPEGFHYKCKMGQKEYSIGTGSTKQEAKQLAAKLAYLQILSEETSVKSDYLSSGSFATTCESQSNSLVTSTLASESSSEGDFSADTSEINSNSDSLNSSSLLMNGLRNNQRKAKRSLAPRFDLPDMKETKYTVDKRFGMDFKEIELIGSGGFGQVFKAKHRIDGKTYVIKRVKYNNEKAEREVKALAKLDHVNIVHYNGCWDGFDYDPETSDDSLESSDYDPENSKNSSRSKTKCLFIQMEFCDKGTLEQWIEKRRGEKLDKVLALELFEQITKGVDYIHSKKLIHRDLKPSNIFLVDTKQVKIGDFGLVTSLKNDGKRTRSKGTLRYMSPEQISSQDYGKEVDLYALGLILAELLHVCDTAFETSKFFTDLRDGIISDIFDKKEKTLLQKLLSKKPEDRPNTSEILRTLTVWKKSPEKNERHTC
SMILES,Kd [1],Kd [2],Kd (peroxiredoxin 3 (PRDX3)),IC50 (EIF2AK2)
"COc1ccc2cc3[n+](cc2c1OC)CCc1cc2c(cc1-3)OCO2 [BBR, berberine]",13.4 µM,16.8 µM,23.7 µM,–
O=C1Nc2ccc3ncsc3c2/C1=C/c1c[nH]cn1 [C16],–,–,–,1.01 µM
